In the supplement of paper PMC9386025:

Tests used:
Assay in all cases: drug sensitivity score (DSS) (DSS (dimensionless)); higher = more sensitive (stronger drug response)
FIMM-PDC4 = patient-derived ovarian cancer cells; details: genetic perturbation: none (patient-derived cell culture)
How it was run: (§1)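 Drugs were pre-plated in 384-well plates at five concentrations covering a 10,000-fold range, and 1 000 – 1 500 cells per well were added from patient-derived cultures or from ovarian cancer cell lines whose shRNA had been induced with 100 ng/ml doxycycline for three days or longer. Incubation lasted three days at 37 °C under 5.0 % CO2. A PHERAstar FS then recorded CellTiter-Glo luminescence as the readout of viability. A drug sensitivity score, calculated as described before, summarised the dose-response curve of every drug.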

FIMM-PDC6 = patient-derived ovarian cancer cells; details: genetic perturbation: none (patient-derived cell culture)
How it was run: as §1

FIMM-PDC5 = patient-derived ovarian cancer cells; details: genetic perturbation: none (patient-derived cell culture)
How it was run: as §1

FIMM-PDC1 = patient-derived ovarian cancer cells; details: genetic perturbation: none (patient-derived cell culture)
How it was run: as §1

FIMM-PDC7 = patient-derived ovarian cancer cells; details: genetic perturbation: none (patient-derived cell culture)
How it was run: as §1

FIMM-PDC3 = patient-derived ovarian cancer cells; details: genetic perturbation: none (patient-derived cell culture)
How it was run: as §1

OVSAHO = test system: OVSAHO
How it was run: as §1

Kuramochi = test system: Kuramochi
How it was run: as §1

JHOS2 = test system: JHOS2
How it was run: as §1

[1] = genetic perturbation: DOX-induced PTK7 shRNA knockdown
[2] = genetic perturbation: DOX-induced control shRNA

| Structure (SMILES) | drug sensitivity score (FIMM-PDC4) | drug sensitivity score (FIMM-PDC6) | drug sensitivity score (FIMM-PDC5) | drug sensitivity score (FIMM-PDC1) | drug sensitivity score (FIMM-PDC7) | drug sensitivity score (FIMM-PDC3) | drug sensitivity score (OVSAHO; [1]) | drug sensitivity score (OVSAHO; [2]) | drug sensitivity score (Kuramochi; [1]) | drug sensitivity score (Kuramochi; [2]) | drug sensitivity score (JHOS2; [1]) | drug sensitivity score (JHOS2; [2]) |
| --- | --- | --- | --- | --- | --- | --- | --- | --- | --- | --- | --- | --- |
| CC[C@H](CC#N)OC(=O)N[C@@H](C)c1cccc(NC(=O)Nc2ccc(-c3cnco3)c(OC)c2)c1 [AVN944] | 7.4 | 6.6 | 18.1 | 7.65 | 10 | 12 | 11.7 | 9.7 | 9.7 | 8.9 | 5.8 | 9.6 |
| Cc1[nH]nc(C(F)(F)F)c1Cc1sc2c(c1C(=O)N1C[C@](C)(O)CO1)c(=O)n(C)c(=O)n2C(C)C [AZD3965] | < 0 | < 0 | < 0 | 2.7 | < 0 | < 0 | 12.1 | < 0 | 0.7 | 3.4 | < 0 | < 0 |
| NC(=O)Nc1cc(-c2cccc(F)c2)sc1C(=O)N[C@H]1CCCNC1 [AZD7762] | 8.1 | 6.4 | 7 | 7.75 | 5.8 | 9.1 | 6.4 | 3.1 | 6 | 2.9 | 7.6 | 4.6 |
| COc1ccc(-c2ccc3c(N4CCOC[C@@H]4C)nc(N4CCOC[C@@H]4C)nc3n2)cc1CO [AZD8055] | 21.2 | 21.8 | 29.2 | 13.9 | 25.7 | 12.9 | 20.7 | 19 | 15.9 | 16.8 | 11.8 | 17 |
| Cc1ncc(-c2ccnc(Nc3ccc(S(C)(=O)=O)cc3)n2)n1C(C)C [AZD-5438] | 9.5 | 9.3 | 12.8 | 7.9 | 7.6 | 7.3 | 8.2 | 7 | 7.55 | 7.8 | 14.4 | 8.3 |
| CN(C)Cc1c(C(=O)NCCOc2ccc(C(=O)NO)cc2)oc2ccccc12 [Abexinostat] | 8.7 | 14.3 | 16.2 | 12.7 | 11.7 | 13.3 | 14.6 | 11.9 | 18.5 | 8.6 | 14.4 | 13.3 |
| CN(C)C/C=C/C(=O)Nc1cc2c(Nc3ccc(F)c(Cl)c3)ncnc2cc1O[C@H]1CCOC1 [Afatinib] | 15.9 | 15.8 | 21.9 | 4.1 | 13.6 | 11 | 1.9 | 1.9 | 1.7 | 1.5 | < 0 | 1.8 |
| COc1cccc2c1C(=O)c1c(O)c3c(c(O)c1C2=O)C[C@@](O)(/C(CO)=N/NC(=O)CCCCCN1C(=O)C=CC1=O)C[C@@H]3O[C@H]1C[C@H](N)[C@H](O)[C@H](C)O1 [Aldoxorubicin] | 8.5 | 7 | 6.6 | 5.7 | 8.4 | 7.4 | 7.9 | 5.1 | 5.45 | 4.9 | 7.9 | 7.4 |
| COc1cc(Nc2ncc3c(n2)-c2ccc(Cl)cc2C(c2c(F)cccc2OC)=NC3)ccc1C(=O)O [Alisertib] | 3.9 | < 0 | 7.2 | 0.85 | < 0 | 6.2 | 7 | 2.4 | 6.25 | 4.2 | 1.9 | 0.9 |
| CN1CC[C@H](c2c(O)cc(O)c3c(=O)cc(-c4ccccc4Cl)oc23)[C@H](O)C1 [Alvocidib] | 17.4 | 16.7 | 22.2 | 16.6 | 20.4 | 15.8 | 16.7 | 14.7 | 16.6 | 14.8 | 14.4 | 14.5 |
| CCN(CC)CCNC(=O)c1c(C)[nH]c(/C=C2\C(=O)Nc3ccc(-c4csc(-c5ccccc5)n4)cc32)c1C [Amcasertib] | < 0 | < 0 | 0.3 | < 0 | 5.3 | 2.6 | 1.6 | 0.8 | 4.6 | < 0 | 8.4 | < 0 |
| COc1cc(NS(C)(=O)=O)ccc1Nc1c2ccccc2nc2ccccc12 [Amsacrine] | 5.1 | 3.9 | 5.8 | 4.55 | 4 | 6.3 | 5.3 | < 0 | 1.25 | 1.4 | 3.3 | 4.4 |
| O=C1CN2Cc3c(ccc(Cl)c3Cl)N=C2N1 [Anagrelide] | 0.8 | 3.5 | < 0 | < 0 | 12 | 2.5 | < 0 | < 0 | < 0 | < 0 | < 0 | 3.5 |
| CC(=O)OC[C@H]1O[C@@H]([S-])[C@H](OC(C)=O)[C@@H](OC(C)=O)[C@@H]1OC(C)=O.CCP(CC)CC.[Au+] [Auranofin] | 1.2 | 4 | 1.1 | 1.9 | 2.2 | 5.5 | 11 | 5.6 | 6.75 | 7.5 | 2.5 | 0.7 |
| Nc1ncn([C@@H]2O[C@H](CO)[C@@H](O)[C@H]2O)c(=O)n1 [Azacitidine] | 2.8 | 7.7 | 6.4 | 4.15 | 9.3 | 5.2 | 3.8 | < 0 | 1.05 | 0.6 | 2.2 | 3.2 |
